Reference: US4835185A, “Immunomodulator for improving commercial performance of domestic animals” (Iowa State University Research Foundation, Inc., priority 1987, dated 1989)
Like-named read-outs stand apart in the source and are kept apart here.

Tests used:
plasma cortisol = test: Plasma cortisol in pigs after test meals; format: in vivo
Experimental: To determine if KIC could acutely alter cortisol concentrations, young pigs were fed meals supplemented with leucine or KIC and plasma cortisol was measured.
In experiment 1, sixteen female pigs weighing 20-30 kg were used. Seven days before study, catheters were surgically placed in the right atria for blood sampling. Animals were housed in individual cages during the recovery period and had free access to water. Preceding the experiment, animals were fed twice daily a basal diet (2% of body weight per feeding). The basal diet consisted of a corn-soybean mix, adequate in all minerals and vitamins and containing approximately 14% crude protein. Test meals were formulated by additions to a basal diet. Five animals received the basal diet (control); five animals received the leucine meal, which had 2% leucine added to the basal diet; and six animals received the KIC diet, which had 2% KIC (sodium salt equivalent to 1.7% free acid) added to the basel diet. Studies were begun between 0800 and 0900 h after a 24-hr fast. Basal blood samples were taken at -20, -10 and -5 min. Animals were then offered 100 g of their respective test meal (time 0). Pigs were included in the study only if they consumed the entire meal in the first 20 min. […] Plasma was separated, Trasylol (FBA Pharmaceuticals, New York, NY) added (50 ul/ml), and plasma stored at -70 C. until analyzed.
Cortisol was measured by coated tube kits (Gammacoat, Travenol-Genetech Diagnostics, Cambridge, MA). Leucine and KIC were measured by high pressure liquid chromatography. Crystalline leucine was obtained from Sigma Chemical (St. Louis, MO) and KIC-sodium was obtained from SOBAC (Paris, France). Statistical analysis of the individual pig responses was conducted on mean plasma concentrations before the meal (-20 to 0 min) and after the meal (120 to 240 min). When the overall treatment F-value was significant, differences between individual treatments were determined using the pooled SEM and a T-test.

lymphocytes = test: Study of Immune Function: lymphocyte blastogenesis, sheep (experiments 1 and 2); format: cell-based, lambs (sheep)
Experimental: A study was conducted to determine if KIC administration can alter white blood cell function, specifically T lymphocyte function, in growing sheep and cattle. Eighteen medium-framed crossbred male lambs were used in experiment 1. Lambs were randomly assigned to either a control diet (n=10) or a diet supplemented with 1% KIC (n=8). Animals were fed ad libitum in individual cages. At 100 and 108 days of treatment, 50-ml blood samples were collected for lymphocyte and neutrophil function tests.
In experiment 2, 19 intact crossbred male lambs were randomly assigned to either a saline treatment group (n=9) or a KIC treatment group (n=10). Control lambs were injected with 50 ml of a saline solution, and KIC treated lambs were injected with 50 ml of a 5% solution of KIC (sodium salt) daily (~2.5 g KIC/day). All injections were made intraperitoneally in the right posterior abdominal region after disinfection of the area. At day 60 and day 66 of treatment, blood was collected for lymphocyte and neutrophil function tests.
Sheep in experiments 1 and 2 were fed diets based on a mixture of 48% corn, 5% molasses, 20% alfalfa meal, 0.8% limestone, 0.6% salt-mineral-vitamin mix and ~25% of a protein supplement (either soybean meal, corn gluten meal, or corn gluten feed). The diets were isonitrogenous and analyzed to be ~20% crude protein and 89% dry matter. The KIC diet consisted of the basal diet to which was added 1% calcium-KIC, whereas the control diet was the basal diet plus 0.25% calcium carbonate.
Blood was collected by jugular venapuncture into acid-citrate-dextrose anticoagulant. Lymphocytes and neutrophils were isolated, and lymphocyte blastogenesis and neutrophil function evaluated. KIC was obtained from SOBAC, Paris, France. […] Each experiment was statistically analyzed by analysis of variance. In sheep experiments, individual animals were the experimental units, whereas pen means were analyzed in the cattle experiment.
^1 Background (BKG), phytohemagglutininstimulated (PHA), concanavalin
Astimulated (ConA), and pokeweed mitogenstimulated (PWM) blastogenesis
were determined by measuring the incorporation ^3 H thymidine into

[1] = Feedlot steers: performance and carcass; format: in vivo, steers (cattle)
Excerpt: Seventy-two medium-frame steers, with an average weight of 578 lbs., were allotted to 12 pens of 6 animals each. A common basal diet was fed ad libitum to all cattle. This consisted of 48.9% cracked corn, 24.4% ground corn cobs, 17.8% expeller Soybean meal, 7.0% molasses (liquid), 1.3% limestone, 0.25% dicalcium phosphate, 2% salt, 0.02% trace mineral premix, and 0.1% vitamin A premix for the first 58 days of the experiment, and was changed to 54.3% cracked corn and 12.8% expeller soybean meal for the remaining 103 days of the experiment. Three pens were assigned to each treatment. The treatments consisted of four levels of Ca-KIC in a pelleted supplement: 0%, 0.02%, 0.07%, and 0.20% of the basal diet (0.05% control pellets, 0.04% KIC pellets, 0.14% KIC pellets, and 0.40% KIC pellets). The pellets were preweighted and top-dressed on the basal diet twice daily. After 58 days, the cattle on the 0.20% KIC were removed from the experiment. The cattle were not implanted with a growth promotant nor were ionophores included in the diet. The cattle were placed in the feedlot and fed a growing ration for 5 weeks prior to the start of the experiment. The cattle were weighed on 2 consecutive days at the beginning and end of the experiment, and every 14 days during the trial. The cattle were sold through a commercial beef processing plant when they were approaised by visual examination to grade Choice. Loin eye area and fat thickness over the loin were measured on each carcass. Quality and yield grades, and percent kidney, heart, and lepvic (KHP) fat were estimated by the federal graders.
(§1) Therefore, an attempt was made to protect KIC from ruminal degradation. KIC pellets, resistant to rumen degradation, were made by mixing zein, ethanol, KIC, limestone, bentonite and water in a ratio of 8.3:7.4:5.2:3:2:1. This mixture was extruded through a die of 15 mm directly into a vat of liquid nitrogen. The shattered pellets were spread out and allowed to air-dry for two days. The dried pellets were coated with zein (2% w/w) by spraying with a 30% zein solution made in 80% ethanol. The pellets again were air-dried. Control pellets were made similar to the KIC pellets except that the mixture was zein, limestone, ethanol, bentonite and water in a ratio of 12:12:7.5:2.7:1. When KIC pellets were placed in the rumen (nylon bag technique), 45% of the KIC added was present in the bags after 36 hr of rumen digestion.
KIC was obtained from SOBAC, Paris, France. Zein was purchased from Freeman Industries, Tuckahoe, N.Y. Each experiment was statistically analyzed by analysis of variance with three pens per treatment.

[2] = Rumen degradation of KIC (nylon bag technique); set-up: species or system ruminants (rumen)
Excerpt: KIC pellets were made by mixing zein, ethanol, KIC, limestone, bentonite, and water in a ratio of […]. This mixture was extruded through a die of 15 mm directly into a vat of liquid nitrogen. The shattered pellets were spread out and allowed to air-dry for 2 days. The pellets were coated with zein (2% w/w) by spraying with a 30% zein solution made in 80% ethanol. The pellets again were air-dryed. Control pellets were made similarly to the KIC pellets except that the mixture was zein, limestone, ethanol, bentonite, and water in a ratio of 12:12:7.5:2.7:1. When KIC pellets were placed in the rumen (nylon bag technique), […] of the KIC added was present in the bags after 24 hr of rumen fermentation. It was estimated that uncoated KIC was 95% degraded in the rumen.
as §1

CC(C)CC(=O)C(=O)O [KIC, alpha-ketoisocaproate]
decrease in cortisol concentration (plasma cortisol; 2% KIC, by 240-300 minutes after the meal, p<0.01): 40%
Plasma cortisol, Change (plasma cortisol; 2% in meal, control -0.09): -1.99 µg/dL
Plasma cortisol, Post (plasma cortisol; 2% in meal, pre: leucine 2.8, KIC 4.7, pooled SEM 0.49): 2.9 µg/dL
BKG: background blastogenesis (lymphocytes; Exp. 1, oral uncoated KIC 1% (control 466), p<.008): 852 Counts/min per 2 × 10^5 cells
PHA: phytohemagglutinin-stimulated blastogenesis (lymphocytes; Exp. 1, oral uncoated KIC 1% (control 6100), p<.003): 16800 Counts/min per 2 × 10^5 cells
PWM: pokeweed mitogen-stimulated blastogenesis (lymphocytes; Exp. 1, oral uncoated KIC 1% (control 19400), p<.77): 17300 Counts/min per 2 × 10^5 cells
ConA: concanavalin A-stimulated blastogenesis (lymphocytes; Exp. 1, oral uncoated KIC 1% (control 41100), p<.81): 44700 Counts/min per 2 × 10^5 cells
BKG: background blastogenesis (lymphocytes; Exp. 2, IP injected KIC (saline 752), p<.10): 947 Counts/min per 2 × 10^5 cells
PHA: phytohemagglutinin-stimulated blastogenesis (lymphocytes; Exp. 2, IP injected KIC (saline 8500), p<.09): 12600 Counts/min per 2 × 10^5 cells
PWM: pokeweed mitogen-stimulated blastogenesis (lymphocytes; Exp. 2, IP injected KIC (saline 21600), p<.72): 29400 Counts/min per 2 × 10^5 cells
ConA: concanavalin A-stimulated blastogenesis (lymphocytes; Exp. 2, IP injected KIC (saline 31200), p<.87): 33500 Counts/min per 2 × 10^5 cells
increase of PHA stimulation (lymphocytes; experiment 1, sheep, oral 1% KIC): 280%
increase of PHA stimulation (lymphocytes; experiment 2, sheep, IP): 150%
Feed conversion improvement ([1]; 161-day trial, 0.02% KIC, NS): 8%
daily gain increase ([1]; 161-day trial, 0.02% KIC, p<0.01): 14%
daily gain increase ([1]; 161-day trial, 0.07% KIC, (NX)): 7%
Feed conversion improvement ([1]; 161-day trial, 0.07% KIC, NS): 6%
Daily gain ([1]; 58 days, 0.07% dietary KIC (0%: 2.80)): 3.12 lb.
Feed/Gain ([1]; 58 days, 0.07% dietary KIC (0%: 5.7)): 5.2
Daily intake ([1]; 58 days, 0.07% dietary KIC (0%: 16.0)): 16.3 lb DM/day
Ending wt. ([1]; 58 days, 0.07% dietary KIC (0%: 756)): 770 lb.
Daily gain ([1]; 58 days, 0.20% dietary KIC (0%: 2.80)): 3.19 lb.
Feed/Gain ([1]; 58 days, 0.20% dietary KIC (0%: 5.7)): 5.2
Daily intake ([1]; 58 days, 0.20% dietary KIC (0%: 16.0)): 16.3 lb DM/day
Ending wt. ([1]; 58 days, 0.20% dietary KIC (0%: 756)): 779 lb.
Daily gain ([1]; 58 days, % dietary KIC printed 0.2 (0%: 2.80), * p<.1): 3.36 lb.
Feed/Gain ([1]; 58 days, % dietary KIC printed 0.2 (0%: 5.7), ** p<.05): 5.0
Daily intake ([1]; 58 days, % dietary KIC printed 0.2 (0%: 16.0)): 16.8 lb DM/day
Ending wt. ([1]; 58 days, % dietary KIC printed 0.2 (0%: 756)): 786 lb.
Daily gain ([1]; 161 days, 0.02% dietary KIC (0%: 2.66), *** p<.01): 3.03 lb.
Feed/Gain ([1]; 161 days, 0.02% dietary KIC (0%: 8.0)): 7.4
Daily intake ([1]; 161 days, 0.02% dietary KIC (0%: 21.2)): 22.6 lb DM/day
Ending wt. ([1]; 161 days, 0.02% dietary KIC (0%: 1016)): 1068 lb.
Daily gain ([1]; 161 days, 0.07% dietary KIC (0%: 2.66)): 2.85 lb.
Feed/Gain ([1]; 161 days, 0.07% dietary KIC (0%: 8.0)): 7.5
Daily intake ([1]; 161 days, 0.07% dietary KIC (0%: 21.2)): 21.6 lb DM/day
Ending wt. ([1]; 161 days, 0.07% dietary KIC (0%: 1016)): 1035 lb.
Feed conversion improvement ([1]; first 58 days, 0.02% KIC, p<0.05): 13%
daily gain increase ([1]; first 58 days, 0.02% KIC, p<0.07): 20%
daily gain increase ([1]; first 58 days, 0.07% KIC, NS): 11%
Feed conversion improvement ([1]; first 58 days, 0.07% KIC, p<0.17): 9%
Feed conversion improvement ([1]; first 58 days, 0.20% KIC, p<0.11): 10%
daily gain increase ([1]; first 58 days, 0.20% KIC, p<0.18): 14%
Feed conversion improvement ([1]; long-term trial, summary): up to 8%
daily gain increase ([1]; long-term trial, summary): up to 14%
degraded ([2]; "as much as", unprotected, read-out: KIC that may be lost by rumen destruction): 90 to 95%
degraded ([2]; estimated, Example IV, read-out: uncoated KIC degraded in the rumen): 95%
degraded ([2]; preliminary experiments, Example VI, read-out: uncoated KIC degraded in the rumen): 95%
